Assay results published in patent US20260028364A1, “CATIONIC CHROMENONES AND THEIR USE IN ONCOLOGY” (FLORATEK PHARMA S.A., priority 2022, published 2026).
pIC50: −log10 of the molar value.

How the values were obtained:
Assay type in all cases: cell-based
SK-Mel-5 = assay: CellTiter-Glo cell viability, SK-Mel-5; conditions: SK-Mel-5 cells, 72 h with compound
Method: (§1) Antitumor activity against a panel of cancer cell lines Antitumor activity of the compounds was assessed by using the CellTiter-Glow® Luminescent Cell Viability assay (Promega #G7572) according to the manufacturer's instructions. The compounds were tested at 5 or 6 concentrations in 1:2 dilution increments (highest concentration 10 µM) in triplicate well conditions.
(§2) Tumor cells were grown at 37° C. in a humidified atmosphere with 5% CO2 in RPMI 1640 or DMEM medium, supplemented with 10% (v/v) fetal calf serum and 50 μg/ml gentamicin for up to 20 passages, and were passaged once or twice weekly. Cells were harvested using TrypLE or PBS buffer containing 1 mM EDTA, and the percentage of viable cells is determined using a cell counter.
(§3) Cells were harvested from exponential phase cultures, counted and plated in 96 well flat-bottom microtiter plates at a cell density depending on the cell line's growth rate (4,000-20,000 cells/well depending on the cell line's growth rate) in RPMI 1640 or DMEM medium supplemented with 10% (v/v) fetal calf serum and 50 μg/ml gentamicin (140 μl/well). Cultures were incubated at 37° C. and 5% CO2 in a humidified atmosphere. After 24 h, 10 μl of test compounds or control medium are added, and left on the cells for another 72 h. Compounds were serially diluted in DMSO, transferred in cell culture medium, and added to the assay plates. The DMSO concentration was kept constant at <0.2% v/v across the assay plate. Viability of cells was quantified by the CellTiter-Glow® Luminescent Cell Viability assay (Promega #G7572). Luminescence was measured with the microplate luminometer (En Vision Perkin Elmer).
(§4) Sigmoidal concentration-response curves were fitted to the data points (test-versus-control, T/C values) obtained for each tumor model using Graph Pad prism 5.02 software. IC50 values are reported as absolute IC50 values, being the concentration of test compound at the intersection of the concentration-response curves with T/C=50%.

Kelly = assay: CellTiter-Glo cell viability, Kelly; conditions: Kelly cells, 72 h with compound
Method: as §1, §2, §3, §4

LoVo = assay: CellTiter-Glo cell viability, LoVo; conditions: LoVo cells, 72 h with compound
Method: as §1, §2
as §3, with “After 24 h, 10 μl of test compounds or control medium are added, and left on the cells for another 72 h. Compounds were serially diluted in DMSO, transferred in cell culture medium, and added to the assay plates. The DMSO concentration was kept constant at <0.2% v/v across the assay plate.” left out, “Elmer). […]” for “Elmer).”

LNCaP = assay: CellTiter-Glo cell viability, LNCaP; conditions: LNCaP cells, 72 h with compound
Method: as §1, §2
as §3, with “After 24 h, 10 μl of test compounds or control medium are added, and left on the cells for another 72 h. Compounds were serially diluted in DMSO, transferred in cell culture medium, and added to the assay plates. The DMSO concentration was kept constant at <0.2% v/v across the assay plate.” left out, “Elmer). […]” for “Elmer).”

H460 = assay: CellTiter-Glo cell viability, H460; conditions: H460 cells, 72 h with compound
Method: as §1, §2
as §3, with “After 24 h, 10 μl of test compounds or control medium are added, and left on the cells for another 72 h. Compounds were serially diluted in DMSO, transferred in cell culture medium, and added to the assay plates. The DMSO concentration was kept constant at <0.2% v/v across the assay plate.” left out, “Elmer). […]” for “Elmer).”

H69 = assay: CellTiter-Glo cell viability, H69; conditions: H69 cells, 72 h with compound
Method: as §1, §2, §3, §4

22Rv1 = assay: CellTiter-Glo cell viability, 22Rv1; conditions: 22Rv1 cells, 72 h with compound
Method: as §1, §2, §3, §4

HCC-15 = assay: CellTiter-Glo cell viability, HCC-15; conditions: HCC-15 cells, 72 h with compound
Method: as §1, §2, §3, §4

BxPC-3 = assay: CellTiter-Glo cell viability, BxPC-3; conditions: BxPC-3 cells, 72 h with compound
Method: as §1, §2, §3, §4

A2058 = assay: CellTiter-Glo cell viability, A2058; conditions: A2058 cells, 72 h with compound
Method: as §1, §2, §3, §4

SK-N-SH = assay: CellTiter-Glo cell viability, SK-N-SH; conditions: SK-N-SH cells, 72 h with compound
Method: as §1, §2, §3, §4

MIA-PaCa-2 = assay: CellTiter-Glo cell viability, MIA-PaCa-2; conditions: MIA-PaCa-2 cells, 72 h with compound
Method: as §1, §2, §3, §4

A375 = assay: CellTiter-Glo cell viability, A375; conditions: A375 cells, 72 h with compound
Method: as §1, §2, §3, §4

MDA-MB-468 = assay: CellTiter-Glo cell viability, MDA-MB-468; conditions: MDA-MB-468 cells, 72 h with compound
Method: as §1, §2
as §3, with “After 24 h, 10 μl of test compounds or control medium are added, and left on the cells for another 72 h. Compounds were serially diluted in DMSO, transferred in cell culture medium, and added to the assay plates. The DMSO concentration was kept constant at <0.2% v/v across the assay plate.” left out, “Elmer). […]” for “Elmer).”

NCI-H1299 = assay: CellTiter-Glo cell viability, NCI-H1299; conditions: H1299 cells, 72 h with compound
Method: as §1, §2, §3, §4

U87MG = assay: CellTiter-Glo cell viability, U87MG; conditions: U87MG cells, 72 h with compound
Method: as §1, §2, §3, §4

MCF-7 = assay: CellTiter-Glo cell viability, MCF-7; conditions: MCF-7 cells, 72 h with compound
Method: as §1, §2, §3, §4

A-673 = assay: CellTiter-Glo cell viability, A-673; conditions: A-673 cells, 72 h with compound
Method: as §1, §2, §3, §4

HepG2 = assay: CellTiter-Glo cell viability, HepG2; conditions: HepG2 cells, 72 h with compound
Method: as §1, §2, §3, §4

pIC50 (SK-Mel-5) | pIC50 (LNCaP) | pIC50 (H460) | pIC50 (22Rv1) | pIC50 (HCC-15) | pIC50 (BxPC-3) | pIC50 (SK-N-SH) | pIC50 (MIA-PaCa-2) | pIC50 (A375) | pIC50 (MDA-MB-468) | SMILES | pIC50 (Kelly) | pIC50 (H69) | pIC50 (A2058) | other results
6.06 | 6.16 | 5.75 | 6.10 | 5.83 | 5.84 | 5.56 | 6.37 | 6.12 | 6.29 | COc1ccc2c(=O)c(-c3cccc(CC[P+](c4ccccc4)(c4ccccc4)c4ccccc4)c3)coc2c1OC [SND542] | 5.77 | 6.68 | 6.16 | pIC50 (LoVo): 5.32
6.01 | 6.17 | 5.70 | 6.04 | 5.87 | 5.74 | 5.41 | 6.20 | 5.82 | 6.25 | COc1ccc2c(=O)c(-c3cccc(C[P+](c4ccccc4)(c4ccccc4)c4ccccc4)c3)coc2c1OC [SND543] | 5.84 | 6.01 | 6.01 | 
 |  |  |  |  |  |  |  |  |  | COc1ccc2c(=O)c(-c3ccc(CC[P+](c4ccccc4)(c4ccccc4)c4ccccc4)cc3)coc2c1OC [SND550] |  |  |  | pIC50 (NCI-H1299; Homo sapiens, NCI-H1299): 5.89; pIC50 (H69; Homo sapiens, NCI-H69): 6.17; pIC50 (22Rv1; Homo sapiens): 6.12; pIC50 (HCC-15; HCC15): 5.89; pIC50 (SK-N-SH; Homo sapiens): 5.43; pIC50 (MIA-PaCa-2; Homo sapiens): 5.37; pIC50 (A375; Homo sapiens, A-375): 6.04
6.82 |  |  | 6.77 | 6.66 | 6.60 | 6.31 | 6.72 | 6.62 |  | COc1ccc2c(=O)c(-c3ccc(CCCCCCCC[P+](c4ccccc4)(c4ccccc4)c4ccccc4)cc3)coc2c1OC [SND478] |  | 6.68 | 6.57 | pIC50 (U87MG): 6.41; pIC50 (NCI-H1299): 6.59; pIC50 (MCF-7): 6.66; pIC50 (A-673): 6.19; pIC50 (HepG2): 6.17
